We go through one molecule from US20070178581A1, “Screening method and apparatus for identifying a reactive compound bonding with a target compound” (SHIMADZU CORPORATION, priority 2006, published 2007).

The test system of the assay is WGA (wheat germ lectin). Put plainly: Bonding of reactive compound with WGA, analysed by elution from the size-excluding first dimension column. Type of assay: binding. As to conditions: 50 mM phosphoric acid buffer pH 6.8/0.8% NaCl, 25° C. The protocol:
FIGS. 8A and 8B show the results of the analysis of the components eluted in the first dimension column in the example shown in FIG. 5. […] The sample used consisted of WGA (1 mg/mL) for the target compound or protein, and p-nitrophenyl-di-N-acetyl-β-chitobioside (0.1 mg/mL) for the reactive compounds. For the first dimension mobile phase, 50 mM phosphoric acid buffer (pH 6.8)/0.8% NaCl solution was used, which was fed at the rate of 0.05 mL/minute. For the first dimension column 10a, a silica-based size-excluding DIOL column (product of Shimadzu Corporation) of 150 mm in length and 2 mm in internal diameter was used, while setting the column oven temperature at 25° C. In the measurements that produced the chromatogram shown in FIG. 8B, 30 μL of WGA or protein was suctioned by the sample injection nozzle 32a, and then 5 μL of p-nitrophenyl-di-N-acetyl-β-chitobioside was suctioned, followed by the injection of the sample from the sample injection nozzle 32a into the sample injection port 8. In FIGS. 8A and 8B, the peaks indicated by the broken lines are the peaks obtained when p-nitrophenyl-di-N-acetyl-β-chitobioside alone was injected into the sample injection port. The peaks of p-nitrophenyl-di-N-acetyl-β-chitobioside appear in different locations in FIGS. 8A and Bbecause the scale on the horizontal axis differs, but the retention time is identical in both graphs.

Turning to `CC(=O)N[C@H]1[C@H](Oc2ccc([N+](=O)[O-])cc2)O[C@H](CO)[C@@H](O[C@@H]2O[C@H](CO)[C@@H](O)[C@H](O)[C@H]2NC(C)=O)[C@@H]1O` [p-nitrophenyl-di-N-acetyl-β-chitobioside], where the note is “reactive compound (5 μL) injected first, then WGA (30 μL), separately, reaction within the size-excluding column”, the “bonding state with WGA judged from elution time (FIG. 8B)” value is recorded as “shifted to the location of the elution time for WGA”. In addition, where the note is “target and reactive compound mixed beforehand and injected as a reaction solution, WGA 1 mg/mL, compound 0.1 mg/mL”, the “bonding state with WGA judged from elution time (FIG. 8A)” value is given as “has been dissociated from WGA”.
